Here are results for seven molecules from ChEMBL document CHEMBL1201862, “PubChem BioAssay data set” (2004).

Molecules are shown by their SMILES.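 Five concentrations, 48 hours, 96-well plates. Here, GI50 denotes the concentration required for 50% inhibition of growth.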 Active and inactive are the calls of the source. Cut-off read from the data, not from the text of the source: active = GI50 up to about 1.1 µM and inactive = higher. A value given as a limit tells only on which side of the number the result lay.

Experiment in all cases: NCI tumour cell line growth inhibition, 48 h
Test [1] has as its system UO-31.
Test [2] deals with 786-0.
The test system of test [3] is LOX IMVI.
Test [4] has as its system NCI/ADR-RES.
Test [5] relates to NCI-H23.
In test [6] the test system is A498.
The test system of test [7] is CCRF-CEM.
Test [8] concerns SN12C.
For test [9], the system named is MOLT-4.
The test system of test [10] is TK-10.
Test [11] deals with HCT-15.
In test [12] the test system is KM12.
Test [13] has as its system M14.
For test [14], the system named is SF-539.
Test [15] deals with RXF 393.
Test [16] concerns CAKI-1.
The subject of test [17] is SR.
For test [18], the system named is HOP-92.
Test [19] has as its system K562.
Test [20] relates to HT-29.

As for `O=C(O)C1C2C=CC(O2)C1C(=O)Nc1ncccn1` (stereo not given), the GI50 in test [1], in test [2], in test [3], in test [4], in [5] and in test [6] was > 100 µM (inactive) throughout. For the same molecule, the GI50 in test [7] was > 100 µM (inactive); in [8], > 100 µM (inactive); in test [9] it was > 100 µM (inactive); in test [10] it was > 100 µM (inactive); in [11] it was greater than 100 µM; in [12], > 100 µM (inactive). Further, the GI50 in test [13], in [14], in test [15], in test [16], in [17] and in [18] was > 100 µM (inactive) throughout. Also, the GI50 in [19] was 97.9 µM (inactive); in [20], > 100 µM (inactive).
Turning to `Clc1nc(NC23CC4CC(CC(C4)C2)C3)nc(NC23CC4CC(CC(C4)C2)C3)n1`, the GI50 in test [1] was 23.4 µM (inactive); in [2], 52.5 µM (inactive); in test [3], > 100 µM (inactive); in test [4], 46 µM (inactive); in test [5], 38.5 µM (inactive); in test [6], > 100 µM (inactive). Further, the GI50 in test [7] was 17 µM (inactive); in test [8] it was > 83.4 µM (inactive); in test [9], 17.5 µM (inactive); in [10] it was > 100 µM (inactive); in test [11], 34.7 µM; in test [12], 41.2 µM (inactive). In addition, the GI50 is 73.1 µM (inactive) in test [13]; > 75.9 µM (inactive) in test [14]; 17.9 µM (inactive) in [15]; > 100 µM (inactive) in test [16]; 29 µM (inactive) in test [17]; 17.3 µM (inactive) in test [18]. In addition, the figures for the GI50 in test [19] and in test [20] were 4.62 µM (inactive) and 66.1 µM (inactive), respectively.
Take `COc1ccc(C2SCC(=O)N2NC(=O)C(C)Oc2ccccc2C)cc1` (stereo not given): the GI50 was 72.1 µM (inactive) in test [1]; > 100 µM (inactive) in test [2]; 60.1 µM (inactive) in test [3]; 65.2 µM (inactive) in test [4]; 55.6 µM (inactive) in test [5]; 46 µM (inactive) in test [6]. Further, the GI50 in test [7] is 65.2 µM (inactive); in test [8], 87.7 µM (inactive); in test [9], 31 µM (inactive); in [10] it was > 100 µM (inactive); in test [11], 54.7 µM; in test [12] it was > 100 µM (inactive). The GI50 in test [13] was > 100 µM (inactive); in test [14], > 100 µM (inactive); in test [15], > 100 µM (inactive); in [16], > 100 µM (inactive); in test [17] it was 28.2 µM (inactive); in test [18] it was 29.2 µM (inactive). The GI50 was 41.4 µM (inactive) in [19] and 95.9 µM (inactive) in [20].
As for `C[C@]12CC[C@H]3[C@@H](CC[C@]4(O)C[C@@H](O)CC[C@]34CO)[C@@]1(O)CC[C@@H]2C1=CC(=O)OC1` [STROPHANTHIDOL], the GI50 is 1.9 µM (inactive) in test [1]; 1.42 µM (inactive) in [2]; 2.01 µM (inactive) in test [3]; 1.51 µM (inactive) in [4]; 1.48 µM (inactive) in test [5]; 1.61 µM (inactive) in test [6]. Besides, the GI50 in [7] is 0.522 µM (active); in test [8], 3.47 µM (inactive); in test [9] it was 0.225 µM (active); in [10], 1.52 µM (inactive); in test [11] it was 2 µM; in test [12] it was 3.66 µM (inactive). Moreover, the GI50 is 3.01 µM (inactive) in test [13]; 1.15 µM (inactive) in [14]; 0.223 µM (active) in test [15]; 0.494 µM (active) in test [16]; 0.861 µM (active) in test [17]; 2.78 µM (inactive) in test [18]. Moreover, the figures for the GI50 in test [19] and in [20] were 2.21 µM (inactive) and 1.94 µM (inactive), respectively.
With `O=C(CCl)Nc1ccc(-c2nc3ccccc3s2)cc1`, the GI50 is 13 µM (inactive) in test [1]; 2 µM (inactive) in test [2]; 0.847 µM (active) in test [3]; 4.59 µM (inactive) in test [4]; 2.96 µM (inactive) in test [5]; 6.82 µM (inactive) in test [6]. In addition, the GI50 in test [7] is 0.94 µM (active); in test [8], 1.87 µM (inactive); in [9] it was 1.74 µM (inactive); in [10], 15.7 µM (inactive); in test [11], 2.18 µM; in test [12] it was 3.3 µM (inactive). Besides, the GI50 was 1.97 µM (inactive) in test [13]; 3.04 µM (inactive) in test [14]; 3.43 µM (inactive) in [15]; 1.74 µM (inactive) in [16]; 1.46 µM (inactive) in [17]; 2.36 µM (inactive) in test [18]. Moreover, the figures for the GI50 in test [19] and in [20] were 1.91 µM (inactive) and 2.39 µM (inactive), respectively.
Turning to `Nc1nc(Cl)cc(NCC2(CO)CCCC2)n1`, the GI50 in test [1] is > 100 µM (inactive); in test [2], > 100 µM (inactive); in test [3] it was 59.7 µM (inactive); in [4], 55.8 µM (inactive); in [5] it was 65.6 µM (inactive); in [6], > 100 µM (inactive). In addition, the GI50 was > 100 µM (inactive) in [7]; > 100 µM (inactive) in test [8]; > 100 µM (inactive) in test [9]; > 100 µM (inactive) in [10]; greater than 100 µM in test [11]; > 100 µM (inactive) in test [12]. Besides, the GI50 in test [13] was > 100 µM (inactive); in test [14], > 100 µM (inactive); in test [15], > 100 µM (inactive); in [16], > 100 µM (inactive); in test [17], > 100 µM (inactive); in test [18], 52.5 µM (inactive). For the same molecule, the GI50 in [19] and in test [20] was > 100 µM (inactive) each time.
Take `C=C1C[C@@H](O)[C@@H](Br)C(C)(C)[C@]12CCC(C)(Br)C(Cl)C2` (stereo not given in full): the GI50 in test [1], in [2], in test [3], in test [4], in [5] and in [6] was > 50 µM (inactive) in each case. Also, the GI50 was > 50 µM (inactive) in [7]; > 50 µM (inactive) in test [8]; > 50 µM (inactive) in test [9]; > 50 µM (inactive) in [10]; greater than 50 µM in test [11]; 1.07 µM (active) in [12]. Also, the GI50 in [13], in test [14], in test [15], in test [16], in test [17] and in test [18] was > 50 µM (inactive) in each case. The GI50 in test [19] was > 50 µM (inactive); in test [20] it was 6.1 µM (inactive).
